Data published in US5914244A, “UL97 fusion proteins and methods of use” (priority 1997, dated 1999).
Like-named read-outs stand apart in the source and are kept apart here.

What was measured:
[1] = molecular target: T1, GST-UL97 fusion protein (glutathione-S-transferase fused to wild-type UL97 protein kinase of CMV strain AD169) (Human cytomegalovirus, UniProt P16788); assay: biochemical; assay type: biochemical; settings: for inhibition at 10 µM: read-out: reduction / inhibition of histone phosphorylation
T1 construct: degradation products of the full length GST-UL97 fusion proteins; made in house; host or cells: Spodoptera frugiperda Sf21 cells infected with recombinant baculovirus BVGSTUL97
Protocol: (§1) Protein samples were added to 20 μl of reaction buffer containing 50 mM Tris HCl pH 9.0, 10 mM MgCl2, 5 μM ATP, 2 mM DTT, 1 M NaCl and 5 μCi γ^32 P-ATP (unless otherwise stated). After incubation at 37° C. for 30 min (unless otherwise stated), the reactions were terminated by addition of 20 μl of 2× Laemmli sample buffer to the sample and boiling for 3 min. Phosphorylated proteins were resolved by electrophoresis on 10% SDS-PAGE gels and detected by autoradiography. In order to quantitate the level of phosphorylation, the region of the gel corresponding to the labelled protein was excised and the Cerenkov radioactivity was counted. For assay of extracts of insect cells infected with BVUL97 and related recombinant viruses, 2×10^7 infected or mock-infected cells were broken by sonication in 1 ml of ice-cold lysis buffer B (50 mM Tris-HCl pH 7.6, 100 mM NaCl, 5 mM MgCl2, 0.1% NP-40, 10% glycerol, […] and 1 mM PMSF). Insoluble material was removed by centrifugation at 12,000×g for 5 minutes.
Exogenous UL97 substrates identified in the substrate assay are used to detect agents which affect UL97 protein kinase activity. […] In a typical reaction, 0.8 μg/μl histone was dissolved in 20 μl reaction buffer, and the reaction was initiated by addition of 1.9 ng/μl GST-UL97. Following a 30 min incubation at 37° C., the reaction was terminated by the addition of 2× Laemmli sample buffer to the sample and boiling for 3 min. Proteins were separated on 15% SDS-PAGE gels, and phosphorylation was detected by autoradiography.
In this assay, an agent which may be an inhibitor or an activator of UL97 is added to the phosphorylation reaction, and the reaction is allowed to proceed. The amount of phosphorylation is then measured, to see if the agent increases or decreases UL97-mediated histone phosphorylation.

[2] = molecular target: T1, GST-UL97 fusion protein (glutathione-S-transferase fused to wild-type UL97 protein kinase of CMV strain AD169); assay: GST-UL97 autophosphorylation protein kinase assay (Km by Lineweaver-Burk plot); assay type: biochemical
Protocol: as §1
The Michaelis or apparent dissociation constant (Km) for GST-UL97 was determined using a Lineweaver-Burk plot. Kinase reactions (enzyme concentration, 4.7 ng/μl) were carried out in 200 μl standard assay buffer. […] Radiolabelled GST-UL97 was separated on 10% SDS-PAGE gels and quantified by Cerenkov count. […]

T1 sequence (P16788 whole entry, the tested form may be a part): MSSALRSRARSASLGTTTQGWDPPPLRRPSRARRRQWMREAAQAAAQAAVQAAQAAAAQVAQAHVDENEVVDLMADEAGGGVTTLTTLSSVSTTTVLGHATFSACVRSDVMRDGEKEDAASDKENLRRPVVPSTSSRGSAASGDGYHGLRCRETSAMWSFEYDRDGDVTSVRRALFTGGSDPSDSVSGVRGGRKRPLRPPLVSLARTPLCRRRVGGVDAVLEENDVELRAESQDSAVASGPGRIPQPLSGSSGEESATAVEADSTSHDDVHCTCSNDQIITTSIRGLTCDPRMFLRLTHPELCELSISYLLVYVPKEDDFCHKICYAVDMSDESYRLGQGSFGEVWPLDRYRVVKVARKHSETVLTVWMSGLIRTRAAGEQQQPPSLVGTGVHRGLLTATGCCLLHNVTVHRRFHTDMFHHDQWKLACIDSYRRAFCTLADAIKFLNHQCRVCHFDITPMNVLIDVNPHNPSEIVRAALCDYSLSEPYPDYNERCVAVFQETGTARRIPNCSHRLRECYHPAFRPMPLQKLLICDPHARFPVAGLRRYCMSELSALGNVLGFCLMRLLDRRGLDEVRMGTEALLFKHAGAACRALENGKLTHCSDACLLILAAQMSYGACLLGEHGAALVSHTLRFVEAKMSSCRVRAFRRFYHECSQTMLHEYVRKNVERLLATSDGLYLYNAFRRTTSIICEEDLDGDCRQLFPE

`Nc1ncnc2c1ncn2[C@@H]1O[C@H](COP(=O)(O)OP(=O)(O)O)[C@@H](O)[C@H]1O` [ADP] was tested, and the activity at 5 µM ([1]; addition at 5 μM, histone phosphorylation, none = 100) was 166% and the “effect on UL97 protein kinase activity (in words)” value ([1]; histone phosphorylation, ADP at 5 μM) was “stimulatory effect”.

For `Nc1ncnc2c1ncn2[C@@H]1O[C@H](COP(=O)(O)OP(=O)(O)OP(=O)(O)O)[C@@H](O)[C@H]1O` [ATP], the Km ([2]; optimal divalent cation concentration, enzyme 4.7 ng/μl, read-out: Km determined for ATP as substrate) was 2 ± 0.5 µM.

In the case of `Nc1nc2c(ncn2[C@@H]2O[C@H](COP(=O)(O)OP(=O)(O)OP(=O)(O)O)[C@@H](O)[C@H]2O)c(=O)[nH]1` [GTP], the Km ([2]; 10 mM Mg2+, read-out: Km for GTP as a phosphate donor) is reported as 4 µM.

In the case of `Nc1nc2c(ncn2[C@@H]2O[C@H](CO)[C@@H](O)[C@H]2O)c(=O)[nH]1` [Guanosine], the activity at 10 µM [1] is reported as 125% and the “effect on GST-UL97 kinase activity (in words)” value ([1]; histone phosphorylation, cAMP 5 μM, guanosine 10 μM (Table 2)) is reported as “Neither cAMP nor guanosine showed an inhibitory effect”.

`O=c1c(O)c(-c2ccc(O)c(O)c2)oc2cc(O)cc(O)c12` [Quercetin] showed an activity at 10 µM ([1]; addition at 10 μM, histone phosphorylation, none = 100, read-out: Activity (%)) of 28% and an inhibition at 10 µM ([1]; agent at 10 μM) greater than 70%.

In the case of `N#CC(C#N)=Cc1ccc(O)c(O)c1` [Tyrphostin 23], the activity at 10 µM [1] is reported as 27% and the inhibition at 10 µM [1] is reported as 73%.

In the case of `NCCCNCCCCNCCCN` [spermine], the activity at 100 µM [1] is reported as 163% and the “effect on UL97-mediated phosphorylation of histone (in words)” value ([1]; 0.1 mM spermine) is reported as “enhanced”.
